How the values were obtained:
Assay in all cases: drug sensitivity score (DSS3, normalised partial AUC of % inhibition dose-response) (DSS (score)); higher = more sensitive (stronger inhibition of viability); extreme values may be limits of the assay
FMOC02_1 = patient-derived low-grade serous ovarian cancer cells; conditions: 72 h; library: FO5A; assay format: 2D, 384-well, CellTiter-Glo
Outline: (§1)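 The drug sensitivity score is calculated as a partial area under the percent-inhibition dose-response curve, divided by the log of the upper asymptote; higher scores mean more sensitive. For this score, early-passage (under 10) patient-derived ovarian cancer cells were exposed on 384-well flat clear-bottom plates to compounds at five concentrations across a 10,000-fold range for 72 h at 37 °C, 5% CO2. Viability was read with CellTiter-Glo and processed in Breeze.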

FMOC02_2 = patient-derived low-grade serous ovarian cancer cells; conditions: 72 h; library: FO5A; assay format: 2D, 384-well, CellTiter-Glo
Outline: as §1

FMOC02_3 = patient-derived low-grade serous ovarian cancer cells; conditions: 72 h; library: FO5A; assay format: 2D, 384-well, CellTiter-Glo
Outline: as §1

FMOC03 = patient-derived mucinous ovarian cancer cells; conditions: 72 h; library: FO5A; assay format: 2D, 384-well, CellTiter-Glo
Outline: as §1

FMOC04 = patient-derived high-grade serous ovarian cancer cells; conditions: 72 h; library: FO5A; assay format: 2D, 384-well, CellTiter-Glo
Outline: as §1

FMOC06 = patient-derived mucinous ovarian cancer cells; conditions: 72 h; library: FO5A; assay format: 2D, 384-well, CellTiter-Glo
Outline: as §1

FMOC09 = patient-derived high-grade serous ovarian cancer cells; conditions: 72 h; library: FO5A; assay format: 2D, 384-well, CellTiter-Glo
Outline: as §1

FMOC11 = patient-derived high-grade serous ovarian cancer cells; conditions: 72 h; library: FO5A; assay format: 2D, 384-well, CellTiter-Glo
Outline: as §1

FMOC14 = patient-derived high-grade serous ovarian cancer cells; conditions: 72 h; library: FO5A; assay format: 2D, 384-well, CellTiter-Glo
Outline: as §1

FMOC17 = patient-derived low-grade serous ovarian cancer cells; conditions: 72 h; library: FO5A; assay format: 2D, 384-well, CellTiter-Glo
Outline: as §1

FMOC22 = patient-derived mucinous ovarian cancer cells; conditions: 72 h; library: FO5A; assay format: 2D, 384-well, CellTiter-Glo
Outline: as §1

FMOC24 = patient-derived high-grade serous ovarian cancer cells; conditions: 72 h; library: FO5A; assay format: 2D, 384-well, CellTiter-Glo
Outline: as §1

FMOC25_2 = patient-derived low-grade serous ovarian cancer cells; conditions: 72 h; library: FO5A; assay format: 2D, 384-well, CellTiter-Glo
Outline: as §1

FMOC27 = patient-derived low-grade serous ovarian cancer cells; conditions: 72 h; library: FO5A; assay format: 2D, 384-well, CellTiter-Glo
Outline: as §1

FMOC28 = patient-derived low-grade serous ovarian cancer cells; conditions: 72 h; library: FO5A; assay format: 2D, 384-well, CellTiter-Glo
Outline: as §1

FMOC25_1 = patient-derived low-grade serous ovarian cancer cells; conditions: 72 h; library: FO4B; assay format: 2D, 384-well, CellTiter-Glo
Outline: as §1

SMILES | drug sensitivity score (FMOC02_1) | drug sensitivity score (FMOC02_2) | drug sensitivity score (FMOC02_3) | drug sensitivity score (FMOC03) | drug sensitivity score (FMOC04) | drug sensitivity score (FMOC06) | drug sensitivity score (FMOC09) | drug sensitivity score (FMOC11) | drug sensitivity score (FMOC14) | drug sensitivity score (FMOC17) | drug sensitivity score (FMOC22) | drug sensitivity score (FMOC24) | drug sensitivity score (FMOC25_2) | drug sensitivity score (FMOC27) | drug sensitivity score (FMOC28) | drug sensitivity score (FMOC25_1)
CC[C@@H]1[C@H](F)C(=O)N[C@@H]1COc1nccc2cc(C(N)=O)c(OC)cc12 | 2.6 | 0.6 | 5.2 | 0 | 0 | 0 | 0 | 0 | 0 | 0 | 0 | 0 | 4 | 0.5 | 0 | 
CNS(=O)(=O)Nc1nccc(Cc2c(C)c3ccc(Oc4ncccn4)cc3oc2=O)c1F | 0 | 0.8 | 3.7 | 0.4 | 0 | 0.4 | 0.7 | 0 | 0 | 0 | 0.7 | 0 | 5.2 | 0 | 4.5 | 
CONC(=O)c1ccccc1Nc1cc(Nc2cc(C)nn2C(C)C)ncc1Cl | 0 | 1.6 | 1 | 0 | 0 | 0 | 1.4 | 0 | 0 | 0.3 | 0 | 0.2 | 1.7 | 0 | 0 | 
C[C@H]1C[C@@H](n2c(Nc3ccc(OC(F)(F)F)cc3)nc3cc(CCC(=O)O)ccc32)CC(C)(C)C1 | 0 | 0 | 0.3 | 0 | 0 | 0 | 0 | 0.6 | 0 | 0 | 1.1 | 4.1 | 0 | 0 | 0 | 
Cn1cc(-c2ccc(F)c(C(F)(F)F)c2)nc1C1CCN(c2ncnc3[nH]ncc23)CC1 | 3.1 | 3.9 | 5.4 | 0 | 0 | 0 | 0 | 0 | 0 | 0.6 | 0 | 0 | 5.6 | 0.1 | 3.8 | 
O=C(NCc1ccncc1)C12CC3CC(C1)CC(c1ccc(Cl)cc1)(C3)C2 | 2.6 | 3.2 | 5.3 | 4.5 | 2 | 5.6 | 4.2 | 5.8 | 1.6 | 3.1 | 5.2 | 4.7 | 3.1 | 4.1 | 4.8 | 
O=C1Cc2cc(C(=O)NC3C[C@H]4CC[C@@H](C3)N4S(=O)(=O)CC3CCN(CCCC(F)(F)F)CC3)c(Cl)cc2N1 (stereo not given in full) | 0 | 0 | 0 | 0 | 0 | 2.3 | 0 | 0 | 0 | 0 | 0 | 0 | 0 | 0 | 0.2 | 
CO[C@H]1C[C@@H]2CC[C@@H](C)[C@@](O)(O2)C(=O)C(=O)N2CCCC[C@H]2C(=O)O[C@H]([C@H](C)C[C@@H]2CC[C@@H](OC(=O)C(C)(CO)CO)[C@H](OC)C2)CC(=O)[C@H](C)/C=C(\C)[C@@H](O)[C@@H](OC)C(=O)[C@H](C)C[C@H](C)/C=C/C=C/C=C/1C [Temsirolimus] |  | 9.5 | 16.5 | 5.6 |  | 2.5 | 3.5 |  | 8.9 |  | 9.7 | 0.5 | 13.1 |  |  | 13.6
Nc1nc2[nH]cnc2c(=S)[nH]1 [Thioguanine] |  | 3.2 | 4.3 | 0 |  | 0 | 0 |  | 0 |  | 0 | 0.95 | 6.3 |  |  | 5.3
CC[C@@]1(O)C(=O)OCc2c1cc1n(c2=O)Cc2cc3c(CN(C)C)c(O)ccc3nc2-1 [Topotecan] |  | 9.7 | 15.3 | 8.1 |  | 8.2 | 8.4 |  | 9.4 |  | 15.6 | 7 | 16.8 |  |  | 12.7
CC(C)C[C@@H](C(=O)N[C@H](C(=O)OC1CCCC1)c1ccccc1)[C@H](O)C(=O)NO [Tosedostat] |  | 7.2 | 11 | 7.6 |  | 11.9 | 6.6 |  | 5.3 |  | 1.8 | 19.7 | 4.7 |  |  | 6.2
Cc1cc(Nc2cc(N3CCN(C)CC3)nc(Sc3ccc(NC(=O)C4CC4)cc3)n2)n[nH]1 [Tozasertib] |  | 5 | 5.7 | 2.2 |  | 3.5 | 4.7 |  | 0.6 |  | 2.9 | 0.65 | 3.6 |  |  | 2.6
CC(=O)Nc1cccc(-n2c(=O)n(C3CC3)c(=O)c3c(Nc4ccc(I)cc4F)n(C)c(=O)c(C)c32)c1 [Trametinib] |  | 15.1 | 14 | 16.6 |  | 15.9 | 9.9 |  | 0.9 |  | 11.6 | 0 | 12 |  |  | 12.4
CN[C@@H]1C[C@H]2O[C@@](C)([C@@H]1OC)n1c3ccccc3c3c4c(c5c6ccccc6n2c5c31)C(=O)N[C@H]4O [UCN-01] |  | 33.1 | 33.7 | 17.2 |  | 23.2 | 20.7 |  | 19.8 |  | 15.9 | 24.4 | 34.4 |  |  | 31
CC(C)Nc1cc(-c2c[nH]c(C(=O)N[C@H](CO)c3cccc(Cl)c3)c2)c(Cl)cn1 [Ulixertinib] |  | 10.6 | 13.1 | 10 |  | 11.4 | 6.7 |  | 0.6 |  | 7.5 | 0.05 | 10.6 |  |  | 12.3
Cn1ncc(Cl)c1-c1cc(C(=O)N[C@H](CN)Cc2ccc(F)c(F)c2)oc1Cl [Uprosertib] |  | 13.1 | 13.7 | 0 |  | 4.3 | 0 |  | 3.5 |  | 0.7 | 1.35 | 4.1 |  |  | 3.5
CNC(=O)c1ccccc1Nc1cc(Nc2ccc(N3CCOCC3)cc2OC)ncc1C(F)(F)F [VS-4718] |  | 12 | 13.8 | 4.2 |  | 9.6 | 11.5 |  | 0.7 |  | 6 | 3.2 | 12.6 |  |  | 6.1
CCCCC(=O)OCC(=O)[C@]1(O)Cc2c(O)c3c(c(O)c2[C@@H](O[C@H]2C[C@H](NC(=O)C(F)(F)F)[C@H](O)[C@H](C)O2)C1)C(=O)c1c(OC)cccc1C3=O [Valrubicin] |  | 6.8 | 9.2 | 5.3 |  | 6.5 | 7.1 |  | 5.1 |  | 7.8 | 7 | 9 |  |  | 9.1
C[C@@H]1COC(Nc2ccc3ncnc(Nc4ccc(OCc5nccs5)c(Cl)c4)c3c2)=N1 [Varlitinib] |  | 12.5 | 6.3 | 9 |  | 0.3 | 6.5 |  | 0.5 |  | 0.1 | 0.5 | 5.1 |  |  | 8.3
O=C(/C=C\n1cnc(-c2cc(C(F)(F)F)cc(C(F)(F)F)c2)n1)NNc1ccccn1 [Verdinexor] |  | 9.4 | 9.2 | 8.2 |  | 11.2 | 7.6 |  | 6 |  | 8.6 | 11.2 | 11.9 |  |  | 6.2
CC[C@]1(O)C[C@@H]2CN(CCc3c([nH]c4ccccc34)[C@@](C(=O)OC)(c3cc4c(cc3OC)N(C)[C@H]3[C@@](O)(C(=O)OC)[C@H](OC(C)=O)[C@]5(CC)C=CCN6CC[C@]43[C@@H]65)C2)C1 [Vinblastine] |  | 3.7 | 17.2 | 7.5 |  | 2.4 | 8.3 |  | 0 |  | 6.8 | 0.45 | 15.9 |  |  | 10.9
CC[C@]1(O)C[C@H]2CN(CCc3c([nH]c4ccccc34)[C@@](C(=O)OC)(c3cc4c(cc3OC)N(C=O)[C@H]3[C@@](O)(C(=O)OC)[C@H](OC(C)=O)[C@]5(CC)C=CCN6CC[C@]43[C@@H]65)C2)C1 [Vincristine] |  | 4.7 | 15.4 | 6.2 |  | 3.4 | 12.5 |  | 0.3 |  | 5.9 | 5.05 | 13 |  |  | 9.4
CCC1=C[C@@H]2CN(C1)Cc1c([nH]c3ccccc13)[C@@](C(=O)OC)(c1cc3c(cc1OC)N(C)[C@H]1[C@@](O)(C(=O)OC)[C@H](OC(C)=O)[C@]4(CC)C=CCN5CC[C@]31[C@@H]54)C2 [Vinorelbine] |  | 14.8 | 23.1 | 17.9 |  | 17.1 | 17.9 |  | 2.4 |  | 16.3 | 6.6 | 17.8 |  |  | 17.7
CC[C@@H]1C(=O)N(C)c2cnc(Nc3ccc(C(=O)N[C@H]4CC[C@H](N5CCN(CC6CC6)CC5)CC4)cc3OC)nc2N1C(C)C [Volasertib] |  | 6.1 | 7.6 | 3.5 |  | 1.2 | 5.1 |  | 0.4 |  | 3.9 | 2.9 | 8.5 |  |  | 3.2
O=C(CCCCCCC(=O)Nc1ccccc1)NO [Vorinostat] |  | 9.8 | 7.7 | 5.5 |  | 7.4 | 3.1 |  | 6.8 |  | 4.6 | 10.1 | 8.5 |  |  | 5.5
Oc1nc(-c2ccc(C(F)(F)F)cc2)nc2c1CSCC2 [XAV-939] |  | 8.5 | 6 | 1.7 |  | 0.5 | 0 |  | 2.1 |  | 0 | 3.55 | 9.9 |  |  | 6.9
FC(F)c1nc2ccccc2n1-c1nc(N2CCOCC2)nc(N2CCOCC2)n1 [ZSTK474] |  | 16.9 | 18.4 | 10.6 |  | 12.5 | 11.8 |  | 9.8 |  | 5.6 | 4.65 | 16.8 |  |  | 15.6
